Measurements published in patent publication US20120122840A1, “COMPOUNDS AND THERAPEUTIC USES THEREOF” (Myrexis, Inc., priority 2009, published 2012).
Peptide text beside a SMILES is read from it. * marks the point of attachment. Cbz = O=C(OCc1ccccc1)*; CH2F = FC*

Columns and labels:
HCT-116 cells = experiment: Effect of caspase inhibition on Compound A responses in HCT-116 cells; type: cell-based
Experimental: Caspase 3/7 activity was determined with a Caspase-Glo 3/7 assay (see FIG. 7A). Cell lysates were analyzed by Western blot with antibodies specific for H2AX-pS139, p53-pS15, p53 or GAPDH (see FIG. 7B).

TTK = biological target: T1, TTK (Homo sapiens, UniProt P33981); experiment: TTK inhibition assay ([γ-33P]ATP transfer to phosphorylated MBP); type: biochemical; parameters: A. Recombinant TTK enzyme; conditions: read-out: inhibition of the protein kinase activity of TTK, IC50
T1 sequence (P33981 1-857): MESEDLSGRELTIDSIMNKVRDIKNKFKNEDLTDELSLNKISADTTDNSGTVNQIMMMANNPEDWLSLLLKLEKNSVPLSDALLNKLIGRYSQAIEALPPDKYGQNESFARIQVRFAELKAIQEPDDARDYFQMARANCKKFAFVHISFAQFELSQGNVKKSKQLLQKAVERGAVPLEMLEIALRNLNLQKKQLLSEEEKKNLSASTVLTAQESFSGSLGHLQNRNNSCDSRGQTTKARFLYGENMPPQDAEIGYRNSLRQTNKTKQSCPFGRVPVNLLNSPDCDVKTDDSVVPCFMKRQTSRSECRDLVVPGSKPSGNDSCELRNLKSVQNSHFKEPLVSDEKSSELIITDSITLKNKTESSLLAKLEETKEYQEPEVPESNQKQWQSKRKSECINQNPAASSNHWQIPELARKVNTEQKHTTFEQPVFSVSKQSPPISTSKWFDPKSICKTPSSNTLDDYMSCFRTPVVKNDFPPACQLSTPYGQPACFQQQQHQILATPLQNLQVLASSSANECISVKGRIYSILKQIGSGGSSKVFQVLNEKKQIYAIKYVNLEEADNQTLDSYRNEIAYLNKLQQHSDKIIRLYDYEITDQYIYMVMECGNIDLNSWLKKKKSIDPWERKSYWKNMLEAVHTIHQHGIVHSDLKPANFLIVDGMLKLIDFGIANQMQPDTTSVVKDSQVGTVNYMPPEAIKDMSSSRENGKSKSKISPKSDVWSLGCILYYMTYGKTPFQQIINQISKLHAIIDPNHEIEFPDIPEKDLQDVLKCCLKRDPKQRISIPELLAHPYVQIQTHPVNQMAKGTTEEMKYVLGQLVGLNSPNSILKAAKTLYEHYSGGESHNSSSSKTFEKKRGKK
Experimental: The compounds of the invention were also tested in the following assay to determine TTK-inhibitory activity. This assay measures transfer of radioactive phosphate from ATP to a protein substrate in the presence or absence of a test compound.
MATERIALS: • A. Recombinant TTK enzyme; • B. Phosphorylated myelin basic protein (MBP); • C. [γ-^33P]ATP: 1 mCi/100 μL; • D. Positive Control: a proprietary compound known to have […] in this assay.
Final concentrations of reaction mixture components (50 μl total volume): 50 mM Tris-HCl, pH 7.5; 0.01% Triton X-100; 10 mM MgCl2; 25 ng TTK (˜4 nM); 5 μM Phosphorylated MBP; 40 μM ATP (1 μCi/well, adjusted ATP specific activity according to strength of radiolabeled ATP).
Mixes were assembled in the wells of a 96-well polypropylene plate as follows: 1 μL 50× compound to be tested; 39 μL 1.282× Reaction Mix; 10 μL 5×ATP Mix.
The following reaction/assay steps were then performed: • 1. Mix thoroughly and incubate at room temperature for 45 minutes; • 2. Add 70 μL/well, except in background wells, of 3% phosphoric acid to terminate reaction, and transfer 100 μL to P81 filter plate; • 3. Wash with 1% phosphoric acid, then dry the P81 filter plate completely; • 4. Add 100 μL/well MicroSint-20 (PerkinElmer #6013621) and seal; • 5.

JNK [1] = biological target: T2, JNK (Homo sapiens, UniProt P45983); experiment: In vitro binding assays
Aurora A [2] = biological target: T3, Aurora A (Homo sapiens, UniProt O14965); experiment: Direct target affinity purification (DTAP) from cell lysates; type: binding; conditions: compound coupled to Sepharose beads
T3 sequence (O14965 1-403): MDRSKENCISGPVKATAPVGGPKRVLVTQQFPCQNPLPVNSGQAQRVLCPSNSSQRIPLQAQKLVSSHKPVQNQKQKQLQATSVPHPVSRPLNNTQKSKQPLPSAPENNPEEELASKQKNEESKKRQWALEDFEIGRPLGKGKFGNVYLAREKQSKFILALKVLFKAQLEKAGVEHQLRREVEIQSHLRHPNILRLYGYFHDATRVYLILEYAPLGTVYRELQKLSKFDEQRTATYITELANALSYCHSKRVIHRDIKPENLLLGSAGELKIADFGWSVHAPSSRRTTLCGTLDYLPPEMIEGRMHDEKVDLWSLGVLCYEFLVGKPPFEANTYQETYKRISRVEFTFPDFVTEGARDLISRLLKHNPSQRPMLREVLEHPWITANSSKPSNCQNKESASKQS
From the text: (§1) Direct target affinity purification (DTAP) was used to investigate (1) the selectivity of compounds of the invention for TTK, relative to other kinases, and (2) the importance of a specific methyl substituent in providing that selectivity.
(§2) In preparation for DTAP studies, the two compounds depicted above were synthesized with an alkyl-amine linker to allow covalent coupling to epoxy-activated Sepharose 6B beads (GE Healthcare, Piscataway, N.J.). Sepharose beads were swollen and washed with water for 30 min followed by equilibration in coupling buffer (50% dimethylformamide, 50 mM Na2CO3). Beads were pelleted by centrifugation (15 sec at 2000×g) and the supernatant removed by aspiration. An equal volume of coupling buffer containing the linkered test compound was used to resuspend the beads. Compound concentrations in the coupling reaction ranged from 0.1 mM to 12.5 mM. The coupling reactions were incubated at 34° C. for 18 hrs on a rotator mixer. Ethanolamine was added to 1 M for the final 1 hr to quench the coupling reaction. Beads were washed extensively with binding buffer (1 M NaCl, 50 mM Hepes [pH 7.4], 1% Triton X-100, 1 mM EDTA and 1 mM dithiothreitol) to remove residual coupling reagents, and were then stored at 4° C.
(§3) Cellular proteins were prepared by mild sonication in lysis buffer (150 mM NaCl, 50 mM Hepes [pH 7.4], 1% Triton X-100, 1 mM EDTA and 2 mM dithiothrietol containing 1× Halt™ protease and phosphatase inhibitor cocktail [Thermo Fisher Scientific, Rockford, Ill.]). Lysates were centrifuged (20,000×g for 20 min) to remove debris, diluted to a protein concentration of ˜5 mg/ml, divided into aliquots, and stored at −80° C.
(§4) For DTAP reactions, cell lysates (˜0.5 ml per binding reaction) were thawed and the NaCl concentration adjusted to 1 M. Competitor compounds dissolved in DMSO (or a DMSO control) were then added to the lysate and incubated on ice for 5 min. The lysates were centrifuged at 20,000×g for 10 min and the cleared supernatant was transferred to a tube containing 50 μl of coupled beads. The binding reactions were incubated on a rotator mixer at 4° C. for 2 hrs, after which the beads were pelleted by centrifugation and the supernatant removed by aspiration. The beads were washed three times with 20 volumes of binding buffer, 2× with 20 volumes wash buffer (150 mM NaCl, 50 mM Hepes [pH 7.4], 1% Tween 20, 1 mM EDTA, 2 mM dithiothrietol) and finally twice with 10 volumes of 150 mM NaCl, 50 mM Hepes [pH 7.4].
(§5) During the final wash, an aliquot containing 10 μl of beads was transferred to a separate tube and resuspended with 15 μl of 2× SDS/PAGE loading buffer (Invitrogen Corporation, Carlsbad, Calif.) for 5 min at 90° C. The eluted proteins were resolved by electrophoresis on a NuPage 4-12% Bis-Tris Gel (Invitrogen Corporation, Carlsbad, Calif.) and visualized by staining with Ruby Red (Invitrogen Corporation, Carlsbad, Calif.). The remaining beads (40 μl) were processed for analysis by mass spectrometry.

JNK [3] = biological target: T2, JNK; experiment: as above; type: binding; conditions: compound coupled to Sepharose beads
From the text: as §1, §2, §3, §4, §5

JAK1 [4] = biological target: T4, JAK1 (Homo sapiens, UniProt P23458); experiment: as above; type: binding; conditions: compound coupled to Sepharose beads
T4 construct: Cellular proteins were prepared by mild sonication in lysis buffer; endogenous in cells
From the text: as §1, §2, §3, §4, §5

FER [5] = biological target: T5, FER (Homo sapiens, UniProt P16591); experiment: as above; type: binding; conditions: compound coupled to Sepharose beads
From the text: as §1, §2, §3, §4, §5

JAK1 [6] = biological target: T4, JAK1; experiment: In vitro binding assays
Aurora A [7] = biological target: T3, Aurora A; experiment: In vitro binding assays
FER [8] = biological target: T5, FER; experiment: In vitro binding assays
[9] = test system: p53 on serine 15 and H2AX on serine 139; experiment: Effect of ATM, ATM/ATR and DNA-PK inhibitors on Compound A-induced phosphorylation in HCT-116 cells; type: cell-based; conditions: 5 μM inhibitor with 1 μM Compound A
Experimental: Phosphorylation of either p53 on serine 15 or H2AX on serine 139 is often mediated by the DNA damage checkpoint proteins, ATM or ATR. […] As a positive control, cells were treated with the UV mimetic 4-NQO (5 μM). Cell lysates were analyzed by Western blot with anti-p53, anti-p53-pS15, anti-H2AX-pS139 and anti-GAPDH antibodies (see FIGS. 6A-6C). […] Phosphorylation of p53 on serine 15 and H2AX on serine 139 appears mediated by ATR kinase in response to TTK inhibition.

HeLa cells = experiment: Cell cycle progression after double thymidine block (propidium iodide, flow cytometry); type: cell-based; conditions: VX-680 at 500 nM
Experimental: HeLa cells were synchronized in the G1 phase of the cell cycle using a double thymidine block. The cells were released from the block by removing the media and replacing it with media containing DMSO, 500 nM VX-680 (Aurora inhibitor), or a TTK inhibitor. At the indicated time points, cells were fixed with methanol, permeabilized and stained with propidium iodide. DNA content was analyzed using a Guava EasyCyte flow cytometer.
This is due to improper spindle formation and chromosome segregation followed by failed cytokinesis. Previously, it has been shown that inhibition of TTK using siRNA results in chromosome missegregation and mitotic defects. Using TTK inhibitors of the present invention, defects in chromosome segregation were observed. Therefore, the effect of the TTK inhibitors of the present invention were analyzed for their effect on cell cycle progression and/or DNA content.

T4 sequence (P23458 whole entry, species assumed): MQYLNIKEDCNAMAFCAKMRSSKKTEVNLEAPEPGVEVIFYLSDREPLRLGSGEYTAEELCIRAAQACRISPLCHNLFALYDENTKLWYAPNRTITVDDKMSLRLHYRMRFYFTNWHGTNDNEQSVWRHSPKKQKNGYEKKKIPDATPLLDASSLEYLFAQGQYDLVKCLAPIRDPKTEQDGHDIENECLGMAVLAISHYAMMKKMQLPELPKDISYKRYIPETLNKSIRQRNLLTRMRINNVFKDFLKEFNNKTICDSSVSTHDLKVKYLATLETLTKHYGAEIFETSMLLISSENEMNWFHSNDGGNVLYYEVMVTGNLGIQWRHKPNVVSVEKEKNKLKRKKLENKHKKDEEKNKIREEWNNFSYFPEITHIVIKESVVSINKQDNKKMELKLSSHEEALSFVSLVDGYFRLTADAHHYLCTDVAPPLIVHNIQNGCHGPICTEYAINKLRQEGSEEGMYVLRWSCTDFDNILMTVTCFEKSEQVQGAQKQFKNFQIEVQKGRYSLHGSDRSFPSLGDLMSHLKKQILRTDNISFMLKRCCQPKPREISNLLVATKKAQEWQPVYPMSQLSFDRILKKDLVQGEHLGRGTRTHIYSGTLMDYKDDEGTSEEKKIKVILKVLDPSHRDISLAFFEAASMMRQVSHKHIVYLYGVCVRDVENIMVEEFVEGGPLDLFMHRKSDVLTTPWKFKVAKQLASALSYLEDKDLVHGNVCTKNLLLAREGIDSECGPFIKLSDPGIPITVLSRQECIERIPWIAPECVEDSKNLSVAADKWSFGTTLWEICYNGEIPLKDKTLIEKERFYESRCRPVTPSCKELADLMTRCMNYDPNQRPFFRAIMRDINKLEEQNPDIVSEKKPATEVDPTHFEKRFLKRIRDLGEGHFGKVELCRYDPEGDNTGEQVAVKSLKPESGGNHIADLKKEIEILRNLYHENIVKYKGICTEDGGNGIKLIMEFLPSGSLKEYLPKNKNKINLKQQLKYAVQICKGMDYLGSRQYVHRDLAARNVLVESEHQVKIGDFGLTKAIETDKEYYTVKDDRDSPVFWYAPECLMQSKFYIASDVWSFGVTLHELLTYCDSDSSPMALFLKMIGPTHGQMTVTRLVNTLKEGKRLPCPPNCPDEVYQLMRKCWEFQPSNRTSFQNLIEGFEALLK
T5 sequence (P16591 whole entry, species assumed): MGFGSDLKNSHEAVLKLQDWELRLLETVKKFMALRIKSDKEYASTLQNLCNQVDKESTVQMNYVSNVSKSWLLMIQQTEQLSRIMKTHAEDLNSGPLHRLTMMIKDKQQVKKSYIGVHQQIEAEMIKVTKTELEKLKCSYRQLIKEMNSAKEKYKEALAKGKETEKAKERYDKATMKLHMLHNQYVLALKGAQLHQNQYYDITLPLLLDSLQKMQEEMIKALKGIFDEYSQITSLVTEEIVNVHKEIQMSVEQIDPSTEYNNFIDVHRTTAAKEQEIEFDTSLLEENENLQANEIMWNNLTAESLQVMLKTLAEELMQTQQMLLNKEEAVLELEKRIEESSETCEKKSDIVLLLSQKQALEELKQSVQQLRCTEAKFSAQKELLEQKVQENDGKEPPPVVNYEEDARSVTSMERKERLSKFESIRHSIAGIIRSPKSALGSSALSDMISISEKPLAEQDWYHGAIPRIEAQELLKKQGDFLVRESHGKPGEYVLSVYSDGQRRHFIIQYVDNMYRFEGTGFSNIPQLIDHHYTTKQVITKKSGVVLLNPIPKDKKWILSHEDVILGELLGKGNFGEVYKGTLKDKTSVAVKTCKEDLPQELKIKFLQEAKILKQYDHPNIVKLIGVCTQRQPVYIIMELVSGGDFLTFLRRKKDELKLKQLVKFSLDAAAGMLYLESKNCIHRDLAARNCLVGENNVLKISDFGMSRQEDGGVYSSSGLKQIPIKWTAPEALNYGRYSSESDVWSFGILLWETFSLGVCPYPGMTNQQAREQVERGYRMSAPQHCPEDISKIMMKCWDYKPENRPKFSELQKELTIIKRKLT
T2 sequence (P45983 whole entry): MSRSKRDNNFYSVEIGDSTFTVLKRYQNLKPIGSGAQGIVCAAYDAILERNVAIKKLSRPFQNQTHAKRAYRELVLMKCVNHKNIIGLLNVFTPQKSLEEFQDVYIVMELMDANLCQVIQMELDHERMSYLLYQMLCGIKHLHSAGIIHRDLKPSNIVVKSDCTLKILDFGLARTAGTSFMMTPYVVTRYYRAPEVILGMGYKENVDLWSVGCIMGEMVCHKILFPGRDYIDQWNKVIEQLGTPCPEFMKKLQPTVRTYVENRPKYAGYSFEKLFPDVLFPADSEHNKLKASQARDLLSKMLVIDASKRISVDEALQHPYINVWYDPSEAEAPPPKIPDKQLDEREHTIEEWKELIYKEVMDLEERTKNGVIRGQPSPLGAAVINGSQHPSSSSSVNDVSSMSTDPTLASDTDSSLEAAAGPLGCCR

COC(=O)C[C@H](NC(=O)[C@H](C)NC(=O)[C@@H](NC(=O)OCc1ccccc1)C(C)C)C(=O)CF [Z-VAD-FMK] (Cbz-Val-Ala-Asp(OMe)-CH2F)
effect on TTK inhibitor-induced H2AX phosphorylation (HCT-116 cells; 100 μM Z-VAD-FMK 1 hour before 1 μM Compound A, 48 hours): prevents TTK inhibitor-induced H2AX phosphorylation | effect on TTK inhibitor-induced p53 phosphorylation and on cell viability (HCT-116 cells; 100 μM Z-VAD-FMK pre-treatment, viability after 72 hours (Cell Titer-Glo)): has no effect on either p53 phosphorylation or cell viability

Cc1cc(OCCCN)ccc1Nc1nc(NC2CCCCC2)c2nc[nH]c2n1 [N2-(4-(3-Aminopropoxy)-2-methylphenyl)-N6-cyclohexyl-9H-purine-2,6-diamine]
IC50 (TTK): 3 nM | IC50 (JNK [1]): 120 nM | binding of Aurora A from cell lysates to bead-coupled compound (Aurora A [2]): failed to bind | binding of JNK from cell lysates to bead-coupled compound (JNK [3]): reduced affinity | binding of JAK1 from cell lysates to bead-coupled compound (JAK1 [4]): reduced affinity | binding of FER from cell lysates to bead-coupled compound (FER [5]): reduced affinity | IC50 (JAK1 [6]): > 5 µM | IC50 (Aurora A [7]): > 5 µM | IC50 (FER [8]): 380 nM

O=c1cc(-c2cccc3c2Sc2ccccc2S3)oc(N2CCOCC2)c1 [KU-55933]
effect on p53 (and H2AX) phosphorylation in response to Compound A [9]: had no effect

Cc1cc(Nc2cc(N3CCN(C)CC3)nc(Sc3ccc(NC(=O)C4CC4)cc3)n2)n[nH]1 [VX-680]
DNA content / cell cycle progression after release from G1 block (HeLa cells): causes cells to become tetraploid

O=C(NC(NC(=S)Nc1ccc(F)c([N+](=O)[O-])c1)C(Cl)(Cl)Cl)C(c1ccccc1)c1ccccc1 (centres unmarked) [CGK733]
effect on p53 (and H2AX) phosphorylation in response to Compound A [9]: blocked p53 and H2AX phosphorylation
